Measurements from patent US11041009B2, “Glucose responsive insulin comprising a tri-valent sugar cluster for treatment of diabetes” (Merck Sharp & Dohme Corp., priority 2017, dated 2021).

How the values were obtained:
human IR(B) = biological target: T1, human IR(B) (Homo sapiens, UniProt P06213); experiment: Insulin Receptor Phosphorylation Assay (MSD pIR assay; Methods A and B); format: cell-based; conditions: Method B: IR phosphorylation assay, 384-well with automated liquid dispense; CHO cells expressing human IR(B); read-out: IR Activation IP†
T1 construct: expressed in transfected cells
Protocol: Insulin Receptor Phosphorylation Assays were performed as follows.
Cells were harvested and frozen in aliquots for use in the MSD pIR assay. Briefly, the frozen cells were plated in either 96-well (40,000 cells/well, Method A) or 384-well (10,000 cells/well, Method B) clear tissue culture plates and allowed to recover. IOC molecules at the appropriate concentrations were added and the cells incubated for 8 min at 37° C. The media was aspirated and chilled MSD cell lysis buffer was added as per MSD kit instructions. The cells were lysed on ice for 40 min and the lysate then mixed for 10 minutes at room temperature. The lysate was transferred to the MSD kit pIR detection plates. The remainder of the assay was carried out following the MSD kit recommended protocol.

[1] = biological target: T2, Human macrophage mannose receptor 1 (MRC1) (Homo sapiens, UniProt P22897); experiment: MRC1 competition binding assay with Eu-labeled mannosylated-BSA (Methods E and F); conditions: Method F: MRC1 assay in a 384-well plate; read-out: MRC1 Binding IP‡
T2 sequence (P22897 19-1456): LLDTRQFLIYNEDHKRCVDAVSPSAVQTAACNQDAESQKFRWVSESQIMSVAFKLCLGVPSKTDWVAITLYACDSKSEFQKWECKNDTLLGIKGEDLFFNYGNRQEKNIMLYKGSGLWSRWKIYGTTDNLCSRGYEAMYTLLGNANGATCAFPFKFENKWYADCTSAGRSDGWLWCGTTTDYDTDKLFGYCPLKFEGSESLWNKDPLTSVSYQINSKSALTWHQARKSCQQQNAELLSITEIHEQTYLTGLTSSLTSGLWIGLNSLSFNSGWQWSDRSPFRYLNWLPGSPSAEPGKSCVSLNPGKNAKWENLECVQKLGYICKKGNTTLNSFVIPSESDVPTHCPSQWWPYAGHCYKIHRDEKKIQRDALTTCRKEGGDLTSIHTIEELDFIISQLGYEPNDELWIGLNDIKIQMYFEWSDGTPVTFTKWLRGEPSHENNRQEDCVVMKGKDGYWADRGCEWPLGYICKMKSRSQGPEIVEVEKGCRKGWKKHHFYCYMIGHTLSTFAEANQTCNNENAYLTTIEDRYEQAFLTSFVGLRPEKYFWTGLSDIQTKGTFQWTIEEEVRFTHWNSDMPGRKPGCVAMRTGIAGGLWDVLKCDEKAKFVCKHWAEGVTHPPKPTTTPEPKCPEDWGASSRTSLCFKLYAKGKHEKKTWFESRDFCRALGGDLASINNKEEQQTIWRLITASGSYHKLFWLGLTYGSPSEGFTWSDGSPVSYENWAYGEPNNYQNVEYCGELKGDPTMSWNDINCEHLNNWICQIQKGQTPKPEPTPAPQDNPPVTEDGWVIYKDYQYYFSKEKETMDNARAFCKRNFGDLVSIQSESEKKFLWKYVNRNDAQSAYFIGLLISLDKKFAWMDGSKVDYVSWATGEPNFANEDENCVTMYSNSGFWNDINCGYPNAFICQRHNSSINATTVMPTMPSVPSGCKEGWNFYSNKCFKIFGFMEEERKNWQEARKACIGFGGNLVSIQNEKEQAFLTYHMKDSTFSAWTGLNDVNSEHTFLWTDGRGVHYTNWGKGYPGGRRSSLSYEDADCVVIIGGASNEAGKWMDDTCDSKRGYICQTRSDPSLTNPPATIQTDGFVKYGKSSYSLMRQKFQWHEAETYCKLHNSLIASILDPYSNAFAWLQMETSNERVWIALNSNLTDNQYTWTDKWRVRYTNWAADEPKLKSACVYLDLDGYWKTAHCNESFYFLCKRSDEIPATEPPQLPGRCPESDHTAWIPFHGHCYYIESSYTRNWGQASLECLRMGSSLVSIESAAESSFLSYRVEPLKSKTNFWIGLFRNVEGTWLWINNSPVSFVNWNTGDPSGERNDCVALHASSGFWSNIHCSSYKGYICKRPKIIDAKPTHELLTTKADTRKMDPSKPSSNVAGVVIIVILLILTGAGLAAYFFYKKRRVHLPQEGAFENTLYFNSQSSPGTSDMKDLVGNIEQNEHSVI
Protocol: Human macrophage mannose receptor 1 (MRC1) Binding Assays were performed as follows.
The competition binding assay for MRC1 utilized a ligand, mannosylated-BSA labeled with the DELFIA Eu-N1-ITC reagent, as reported in the literature. Assay was performed either in a 96-well plate with 100 μL well volume (Method E) or in a 384-well plate with 25 μL well volume (Method F). […] The antibody was incubated in the plate for 1 hr at room temperature with shaking. The plate was washed with wash buffer 3-5 times followed by addition of MRC1 (2 ng/μl final concentration) in PBS containing 1% stabilizer BSA. The plate was incubated at room temperature with gentle shaking for 1 hr. The plate was washed three times with wash buffer. The IOC molecules in 12.5 μL (or 50 μL depending on plate format) buffer at appropriate concentrations were added followed by 12.5 μL (or 50 μL) Eu-mannosylated-BSA (0.1 nM final concentration) in 50 mM Tris, pH 7.5 containing 100 mM NaCl, 5 mM CaCl2, 1 mM MgCl2 and 0.2% stabilizer BSA. The plate was incubated for 2 hrs at room temperature with shaking followed by washing three times with wash buffer. Perkin Elmer Eu-inducer reagent was added and incubated for 30 min at room temperature prior to detection of the Eu signal (Excitation=340 nm: Emission=615 nm).

[2] = biological target: human insulin receptor type B (IR(B)) (Homo sapiens, UniProt P06213); experiment: Insulin Receptor Binding Assay, scintillation proximity assay with cell membranes (Method D)
human insulin receptor type B (IR(B)), sequence (P06213 28-758 limits assumed): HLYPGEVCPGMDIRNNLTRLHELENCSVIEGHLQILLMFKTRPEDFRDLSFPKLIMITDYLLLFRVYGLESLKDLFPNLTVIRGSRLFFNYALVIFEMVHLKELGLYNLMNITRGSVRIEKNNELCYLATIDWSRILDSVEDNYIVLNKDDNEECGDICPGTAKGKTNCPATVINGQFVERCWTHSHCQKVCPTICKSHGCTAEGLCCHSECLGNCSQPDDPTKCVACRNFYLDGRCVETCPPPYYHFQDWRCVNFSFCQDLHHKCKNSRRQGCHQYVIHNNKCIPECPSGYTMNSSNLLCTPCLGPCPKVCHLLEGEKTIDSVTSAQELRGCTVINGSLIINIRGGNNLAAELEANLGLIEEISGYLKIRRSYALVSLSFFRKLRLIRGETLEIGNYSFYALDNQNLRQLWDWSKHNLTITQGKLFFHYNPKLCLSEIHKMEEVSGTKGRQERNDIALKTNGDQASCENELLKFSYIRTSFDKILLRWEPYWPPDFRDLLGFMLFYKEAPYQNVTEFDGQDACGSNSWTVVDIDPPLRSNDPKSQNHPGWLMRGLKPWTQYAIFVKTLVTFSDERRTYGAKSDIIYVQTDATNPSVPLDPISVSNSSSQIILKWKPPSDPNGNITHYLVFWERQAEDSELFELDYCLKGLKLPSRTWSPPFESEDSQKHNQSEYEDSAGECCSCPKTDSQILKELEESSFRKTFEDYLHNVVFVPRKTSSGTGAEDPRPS
human insulin receptor type B (IR(B)), sequence (P06213 763-1382 partner limits assumed): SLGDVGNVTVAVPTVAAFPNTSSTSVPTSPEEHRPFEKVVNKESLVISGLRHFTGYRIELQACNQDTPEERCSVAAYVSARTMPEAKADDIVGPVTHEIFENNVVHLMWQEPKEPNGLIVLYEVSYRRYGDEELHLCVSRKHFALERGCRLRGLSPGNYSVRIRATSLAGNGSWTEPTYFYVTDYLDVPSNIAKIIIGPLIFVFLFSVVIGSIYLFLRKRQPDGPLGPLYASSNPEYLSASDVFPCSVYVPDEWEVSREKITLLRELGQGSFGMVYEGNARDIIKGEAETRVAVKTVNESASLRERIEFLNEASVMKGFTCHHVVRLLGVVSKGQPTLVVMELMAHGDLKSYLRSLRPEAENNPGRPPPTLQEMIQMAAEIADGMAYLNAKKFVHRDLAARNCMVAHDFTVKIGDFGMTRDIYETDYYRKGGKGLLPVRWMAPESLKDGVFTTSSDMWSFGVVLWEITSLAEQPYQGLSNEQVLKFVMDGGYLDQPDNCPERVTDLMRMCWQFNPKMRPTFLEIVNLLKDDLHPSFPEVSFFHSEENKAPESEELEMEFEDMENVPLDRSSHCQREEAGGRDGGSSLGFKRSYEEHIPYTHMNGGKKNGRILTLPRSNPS

T1 sequence (P06213 28-758 limits assumed): as the sequence (P06213 28-758 limits assumed) above
T1 sequence (P06213 763-1382 partner limits assumed): as the sequence (P06213 763-1382 partner limits assumed) above

**Q.** Which EC50 (human IR(B)) does the source give for `CC[C@H](C)[C@H](NC(=O)CN)C(=O)N[C@H](C(=O)N[C@@H](CCC(=O)O)C(=O)N[C@@H](CCC(N)=O)C(=O)N[C@H]1CSSC[C@@H]2NC(=O)[C@H]([C@@H](C)CC)NC(=O)[C@H](CO)NC(=O)[C@H]([C@@H](C)O)NC(=O)[C@H](CSSC[C@H](NC(=O)[C@H](CC(C)C)NC(=O)[C@H](Cc3c[nH]cn3)NC(=O)[C@H](CCC(N)=O)NC(=O)[C@H](CC(N)=O)NC(=O)[C@@H](NC(=O)[C@H](Cc3ccccc3)NC(=O)CCCCC(=O)N(CC(=O)NCCO[C@@H]3O[C@H](CO)[C@@H](O)[C@H](O)[C@H]3O)CC(=O)N(CCO[C@H]3O[C@H](CO)[C@@H](O)[C@H](O)[C@@H]3O)CCO[C@H]3O[C@H](CO)[C@@H](O)[C@H](O)[C@@H]3O)C(C)C)C(=O)NCC(=O)N[C@@H](CO)C(=O)N[C@@H](Cc3c[nH]cn3)C(=O)N[C@@H](CC(C)C)C(=O)N[C@@H](C(C)C)C(=O)N[C@@H](CCC(=O)O)C(=O)N[C@@H](C)C(=O)N[C@@H](CC(C)C)C(=O)N[C@@H](Cc3ccc(O)cc3)C(=O)N[C@@H](CC(C)C)C(=O)N[C@@H](C(C)C)C(=O)N[C@H](C(=O)NCC(=O)N[C@@H](CCC(=O)O)C(=O)N[C@@H](CCCNC(=N)N)C(=O)NCC(=O)N[C@@H](Cc3ccccc3)C(=O)N[C@@H](Cc3ccccc3)C(=O)N[C@@H](Cc3ccc(O)cc3)C(=O)N[C@H](C(=O)N3CCC[C@H]3C(=O)N[C@@H](CCCCNC(=O)CCCCC(=O)N(CC(=O)NCCO[C@@H]3O[C@H](CO)[C@@H](O)[C@H](O)[C@H]3O)CC(=O)N(CCO[C@H]3O[C@H](CO)[C@@H](O)[C@H](O)[C@@H]3O)CCO[C@H]3O[C@H](CO)[C@@H](O)[C@H](O)[C@@H]3O)C(=O)N[C@H](C(=O)O)[C@@H](C)O)[C@@H](C)O)CSSC[C@@H](C(=O)N[C@@H](CC(N)=O)C(=O)O)NC(=O)[C@H](Cc3ccc(O)cc3)NC(=O)[C@H](CC(N)=O)NC(=O)[C@H](CCC(=O)O)NC(=O)[C@H](CC(C)C)NC(=O)[C@H](CCC(N)=O)NC(=O)[C@H](Cc3ccc(O)cc3)NC(=O)[C@H](CC(C)C)NC(=O)[C@H](CO)NC2=O)NC1=O)C(C)C` [IOC-63] here?
**A.** 0.63 nM

**Q.** What about the IC50 [1] of the same compound?
**A.** 70.2 nM

**Q.** What about the IC50 [2] of the same compound?
**A.** 1.65 nM
